Data: BindingDB's records for patent US10961236 (Astrazeneca, 2021)

Target: T1, Phosphatidylinositol 4,5-bisphosphate 3-kinase catalytic subunit gamma isoform [144-1102] (Homo sapiens, UniProt P48736)
T1 construct: 144-1102
Test: Enzymatic Activity Assay
Experimental: Routinely, inhibitors were pre-incubated with 3 μl of enzyme for 15 min prior to the addition of 2 μl substrate mixture for a further 60 min enzyme reaction. The phosphorylation was stopped with the addition of 3 μl ADP-Glo reagent (stop solution) followed by a 40 min incubation. Prior to detection 6 μl of ADP-Glo Kinase Detection Reagent was added and the plates were read in a micro plate reader using a Luminescence filter. All additions were followed by a short centrifugation step.

T1 sequence (P48736 144-1102): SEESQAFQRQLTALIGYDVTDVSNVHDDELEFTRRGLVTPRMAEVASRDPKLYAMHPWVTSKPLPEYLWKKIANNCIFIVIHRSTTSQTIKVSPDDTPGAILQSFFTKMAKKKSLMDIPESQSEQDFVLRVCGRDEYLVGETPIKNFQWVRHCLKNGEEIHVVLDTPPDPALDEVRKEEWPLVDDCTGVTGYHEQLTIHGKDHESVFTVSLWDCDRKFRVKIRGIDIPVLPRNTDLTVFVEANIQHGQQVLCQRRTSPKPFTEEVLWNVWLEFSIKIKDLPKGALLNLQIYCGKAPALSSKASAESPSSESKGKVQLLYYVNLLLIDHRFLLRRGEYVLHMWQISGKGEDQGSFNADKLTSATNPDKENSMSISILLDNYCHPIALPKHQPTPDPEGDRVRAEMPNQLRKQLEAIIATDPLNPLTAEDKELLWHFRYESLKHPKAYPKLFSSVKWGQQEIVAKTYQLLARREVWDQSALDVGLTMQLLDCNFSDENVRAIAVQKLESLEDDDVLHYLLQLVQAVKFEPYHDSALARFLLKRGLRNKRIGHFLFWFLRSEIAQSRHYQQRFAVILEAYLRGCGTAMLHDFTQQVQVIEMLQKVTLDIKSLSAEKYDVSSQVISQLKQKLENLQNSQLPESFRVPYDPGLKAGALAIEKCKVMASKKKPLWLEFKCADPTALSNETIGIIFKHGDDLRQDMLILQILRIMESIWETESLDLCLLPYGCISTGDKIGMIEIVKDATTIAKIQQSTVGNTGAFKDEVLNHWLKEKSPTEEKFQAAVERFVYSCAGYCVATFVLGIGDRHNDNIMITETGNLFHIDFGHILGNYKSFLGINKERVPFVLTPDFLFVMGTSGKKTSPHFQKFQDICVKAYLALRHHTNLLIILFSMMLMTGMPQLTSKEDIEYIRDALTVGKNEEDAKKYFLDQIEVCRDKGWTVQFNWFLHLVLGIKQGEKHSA

IC50: 1 nM
SMILES: CC[C@H](C)N1Cc2cc(-c3sc(Nc4cccc(N5CCCOC5=O)n4)nc3C)cc(S(=O)(=O)NC)c2C1=O [US10961236, Example 61]
